Test results as given in paper PMC10897598, “TwinF interface inhibitor FP802 stops loss of motor neurons and mitigates disease progression in a mouse model of ALS” (Cell Reports Medicine, 2024).

Key:
[1] = test system: primary mouse cortical neurons; test: Glutamate neurotoxicity assay in primary cortical neurons; assay type: cell-based; details: Cortical neurone, 20 μM glutamate, compound added 30 min prior, nuclear mCherry-positive neurons, read-out: IC50, protective activity against glutamate-mediated neurotoxicity
Experimental: On DIV10, vehicle (DMSO) or FP802 were added to the primary cortical cultures 30 min prior to glutamate insult. Images were acquired following the glutamate application for 24 h with 2 h intervals, where 9 images were obtained via a 20x objective for each condition at each time point with IncuCyte S3 Live-Cell Analysis System (Sartorius AG, Germany).

[2] = test system: 30 common targets; test: Pharmacology safety screening, radioligand binding assays; details: 10 µM; significant = over 50% inhibition or stimulation
Experimental: Pharmacology safety of FP802 was evaluated in radio ligand binding assays carried out by Eurofins Panlabs Discovery Services Taiwan, Ltd. Significant responses are defined as over 50% inhibition or stimulation in the primary assays.
Table S1. Pharmacology safety profile of FP802. […]

[3] = test system: SOD1^G93A mice; test: Post-onset treatment of the SOD1G93A ALS mouse model; assay type: in vivo
Text: Heterozygous SOD1^G93A transgenic mice expressing human SOD1^G93A mutant on a C57BL/6 background (Jackson Laboratory, 004435, RRID:IMSR_JAX:004435) were used in this study.[24]^,[34] Heterozygosity was maintained by mating heterozygous transgenic males with C57BL/6 wild-type females. The animals were provided by the interdisciplinary neurobehavioral core (INBC) at Heidelberg University. Only male wild-type mice and male transgenic mice were used in the experiments. They were housed in groups (maximally three mice/cage) in the INBC, where all behavior experiments were performed. All mice were kept in standard cages (15 cm × 21 cm × 13.5 cm) on a 12:12 h light:dark cycle with ad libitum access to food, water, and nesting material. The treatments were randomly allocated to mice within litter blocks. The experimenter was blinded to the experimental group from the implantation until all analyses were done.
A total of 83 heterozygous SOD1^G93A and 22 wild-type littermates were employed in this study. Eight WT and 12 SOD1^G93A mice were used to determine the EAAT2 protein levels in the spinal cord. Three SOD1^G93A mice were treated with FP802 to explore the concentration of FP802 in the spinal cord. Four SOD1^G93A mice were used to test the tolerability of mice to subcutaneously ALZET osmotic pump (type 2004) implantation with FP802 that allowed a continuous and constant supply of compound to the animals for 4 weeks. Eight wild-type mice were used to explore the disruption of the NMDAR/TRPM4 death signaling complex by FP802. In total, 52 SOD1^G93A mice were treated with FP802 or vehicle via ALZET osmotic pump from week 15 for 30 days (four cohorts). It was not possible to extend the treatment beyond the 30 days application period because the poor health state of many animals was incompatible with the anesthesia required for surgical implantation of a second osmotic pump. The number of animals used for experiments was specified in the figure legends. […] In addition, six wild-type littermates and 12 SOD1^G93A mice were used at week 19 and week 15, respectively, for the analysis of motor neuron survival and serum NfL levels. For the analysis of motor neuron survival, three mice (two from wild-type littermates, one from vehicle-treated SOD1^G93A mice) were excluded from the motor neuron survival because of the loss of sample during preparation.
Bodyweight and neurological scores were examined weekly starting at the onset of symptoms at week 15, which has been defined by previous studies with the same mouse line.[33]^,[34] Neurological scores of the mice were recorded as 0–4 based on the behavior of their hind limbs.[46] The humane endpoint was defined as the mouse’s inability to rectify itself in 30 s and examined daily from week 19 without knowing the treatment group.
Before experiments, mice were habituated to the experimenter and testing room by gentle handling for 1 min in 3 consecutive days. A brief video was taken in the behavior room where the SOD1^G93A mice were placed in an open chamber. On the experimental day, the mice were placed into an open arena (50 cm × 50 cm × 50 cm) for a total of 10 min experiment. The total traveled distance of each mouse was traced and analyzed with SYGNIS software, and also the rearing time was reordered without knowledge of the treatment.
The survival of motor neurons was examined by quantifying the motor neuron marker, choline acetyltransferase (ChAT)-positive neurons, and the inflammation was examined by quantifying the microglial cell marker, ionized calcium binding adaptor molecule 1 (Iba1), in the ventral horn of lumbar spinal cord (L3-L5). All control mice and SOD1 mice were perfused with 20 mL PBS followed by 20 mL of 4% paraformaldehyde in PBS. The lumbar spinal cord was dissected and post-fixed in the same solution for an additional 10 min, followed by 24 h incubation with 30% sucrose solution in PBS. […]

[4] = FP802 for 4 weeks from week 15, vs vehicle

SMILES: CCN(CCN)Cc1cccc(Cl)c1 [FP802]
- IC50 [1]: 8.7 µM
- binding activities in radioligand binding safety panel [2]: No significant binding activities
- EAAT/GLT-1 expression in lumbar spinal cord ([3]; 40 mg/kg/day for 4 weeks from week 15, immunoblot): no significant effect
- neurological scores ([3]; FP802 for 4 weeks from week 15 (onset), s.c. osmotic pump, vs vehicle): significantly better
- body weight losses [3, 4]: lower
- motor performance, total distances traveled in an open field [3, 4]: significantly improved
- rearing behavior in open field [3, 4]: frequent rearing behavior
- survival median (lifespan) ([3]; FP802 for 4 weeks starting at week 15, vehicle 151 days): 164 days
- neuroinflammatory response, microglia marker Iba1 ([3]; ventral horn of lumbar spinal cord, week 19): not affected
- serum levels of neurofilament light (NfL) chain ([3]; week 19, treatment from week 15): reduction
- soma sizes of lumbar spinal motor neurons ([3]; week 19, vs control-treated SOD1G93A mice): larger
- number of lumbar spinal motor neurons (ChAT-positive) ([3]; week 19 vs week 15, treatment from week 15): no additional death
